Source: the supplement of paper PMC12406974

Columns and labels:
Experiment in all cases: maximum observed lethal fraction; higher = more cell death
U2OS BCL2L12-KO = tested on: U2OS BCL2L12-KO
U2OS PTBP1-KO = tested on: U2OS PTBP1-KO
U2OS = tested on: U2OS
U2OS BAX/BAK1 DKO = tested on: U2OS BAX/BAK1 DKO
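Further: FLICK assay: SYTOX Green fluorescence of dead cells tracked over time after drugging in 96-well plates, with total cell counts taken from Triton X-100 lysed wells.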

C#C[C@@]1(O)[C@@H](CO)O[C@@H](n2ccc(N)nc2=O)[C@@H]1O [Ethynylcytidine]
maximum observed lethal fraction
Conditions	0.01 µM	0.0316 µM	0.1 µM	0.316 µM	1 µM	3.16 µM	10 µM
U2OS	0.0536	0.0612	0.071	0.0947	0.523	0.868	0.787
U2OS BAX/BAK1 DKO	0.0536	0.059	0.0745	0.0801	0.0819	0.0878	0.0906
U2OS BCL2L12-KO	0.068	0.0771	0.0843	0.0999	0.323	0.706	0.715
U2OS PTBP1-KO	0.0691	0.0709	0.0864	0.0904	0.101	0.329	0.244

NC1(C(=O)N[C@@H](CCO)c2ccc(Cl)cc2)CCN(c2nc[nH]c3nccc2-3)CC1 [Capivasertib]
maximum observed lethal fraction
Conditions	0.0316 µM	0.1 µM	0.316 µM	1 µM	3.16 µM	10 µM	31.6 µM
U2OS	0.0687	0.066	0.0671	0.0702	0.0868	0.109	0.201
U2OS BAX/BAK1 DKO	0.0665	0.0661	0.0653	0.0697	0.074	0.078	0.0858
U2OS BCL2L12-KO	0.0788	0.0816	0.0788	0.0844	0.0929	0.108	0.236
U2OS PTBP1-KO	0.0937	0.0911	0.0962	0.0997	0.111	0.132	0.22

CC(C)[C@]12O[C@H]1[C@@H]1O[C@]13[C@]1(O[C@H]1C[C@H]1C4=C(CC[C@@]13C)C(=O)OC4)[C@@H]2O [Triptolide]
maximum observed lethal fraction
Conditions	0.001 µM	0.00316 µM	0.01 µM	0.0316 µM	0.1 µM	0.316 µM	1 µM
U2OS	0.0606	0.0621	0.161	0.621	0.521	0.616	0.638
U2OS BAX/BAK1 DKO	0.0639	0.067	0.0751	0.0882	0.0915	0.0939	0.0919
U2OS BCL2L12-KO	0.0575	0.0652	0.073	0.378	0.23	0.282	0.309
U2OS PTBP1-KO	0.0668	0.0699	0.085	0.24	0.206	0.223	0.286

CC[C@@]1(O)C(=O)OCc2c1cc1n(c2=O)Cc2cc3c(CN(C)C)c(O)ccc3nc2-1 [Topotecan]
maximum observed lethal fraction
Conditions	0.0316 µM	0.1 µM	0.316 µM	1 µM	3.16 µM	10 µM	31.6 µM
U2OS	0.0699	0.0706	0.0756	0.0868	0.233	0.5	0.683
U2OS BAX/BAK1 DKO	0.0741	0.0822	0.0765	0.0845	0.0931	0.0974	0.177
U2OS BCL2L12-KO	0.0781	0.0819	0.0871	0.0968	0.208	0.495	0.798
U2OS PTBP1-KO	0.0741	0.0838	0.0808	0.0858	0.106	0.197	0.329

CN1CC[C@H](c2c(O)cc(O)c3c(=O)cc(-c4ccccc4Cl)oc23)[C@H](O)C1 [Flavopiridol]
maximum observed lethal fraction
Conditions	0.01 µM	0.0316 µM	0.1 µM	0.316 µM	1 µM	3.16 µM	10 µM
U2OS	0.0575	0.0639	0.486	0.528	0.552	0.501	0.356
U2OS BAX/BAK1 DKO	0.0607	0.0712	0.208	0.0919	0.093	0.092	0.0925
U2OS BCL2L12-KO	0.0552	0.0619	0.1	0.279	0.298	0.295	0.249
U2OS PTBP1-KO	0.0606	0.067	0.099	0.198	0.282	0.247	0.198

CC(=O)c1c(C)c2cnc(Nc3ccc(N4CCNCC4)cn3)nc2n(C2CCCC2)c1=O [Palbociclib]
maximum observed lethal fraction
Conditions	0.01 µM	0.0316 µM	0.1 µM	0.316 µM	1 µM	3.16 µM	10 µM
U2OS	0.0597	0.068	0.0645	0.0683	0.0747	0.09	0.173
U2OS BAX/BAK1 DKO	0.0642	0.0646	0.0686	0.0764	0.0783	0.0842	0.0911
U2OS BCL2L12-KO	0.0599	0.0645	0.0667	0.0699	0.0732	0.0829	0.221
U2OS PTBP1-KO	0.0641	0.0713	0.0739	0.0802	0.0817	0.0847	0.109

CNCc1ccc(-c2[nH]c3cc(F)cc4c3c2CCNC4=O)cc1 [Rucaparib]
maximum observed lethal fraction
Conditions	0.1 µM	0.316 µM	1 µM	3.16 µM	10 µM	31.6 µM	100 µM
U2OS	0.0508	0.0538	0.0545	0.057	0.0608	0.278	0.81
U2OS BAX/BAK1 DKO	0.0512	0.0548	0.0528	0.06	0.0652	0.0926	0.178
U2OS BCL2L12-KO	0.065	0.0637	0.0652	0.0687	0.0753	0.195	0.886
U2OS PTBP1-KO	0.0657	0.065	0.0647	0.0685	0.0766	0.18	0.683

CC1(C)CCC(c2ccc(Cl)cc2)=C(CN2CCN(c3ccc(C(=O)NS(=O)(=O)c4ccc(N[C@H](CCN5CCOCC5)CSc5ccccc5)c(S(=O)(=O)C(F)(F)F)c4)cc3)CC2)C1 [ABT-263]
maximum observed lethal fraction
Conditions	0.1 µM	0.316 µM	1 µM	3.16 µM	10 µM	31.6 µM	100 µM
U2OS	0.0623	0.0847	0.106	0.2	0.247	0.683	0.984
U2OS BAX/BAK1 DKO	0.0556	0.0535	0.0545	0.0548	0.0634	0.172	0.43
U2OS BCL2L12-KO	0.0718	0.0885	0.121	0.225	0.26	0.821	1
U2OS PTBP1-KO	0.0713	0.0786	0.0982	0.131	0.192	0.771	1
